The values that follow come from ChEMBL document CHEMBL1201862, “PubChem BioAssay data set” (2004).

Experiment in all cases: NCI-60 cell line screen, 48 h
For assay [1], the system named is CCRF-CEM.
The subject of assay [2] is NCI-H23.
Assay [3] has as its system M14.
Assay [4] has as its system UO-31.
The test system of assay [5] is HOP-62.
Assay [6] relates to LOX IMVI.
The subject of assay [7] is IGROV-1.
Assay [8] deals with HT-29.
For assay [9], the system named is ACHN.
For assay [10], the system named is MOLT-4.
In assay [11] the test system is Malme-3M.
The subject of assay [12] is RXF 393.
For assay [13], the system named is SW-620.
Assay [14] concerns SN12C.
The subject of assay [15] is SF-539.
Assay [16] relates to SK-OV-3.
The test system of assay [17] is EKVX.

The structures appear in SMILES notation.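 96-well plates; 48 h exposure; 5 concentrations. Endpoints by linear interpolation between flanking doses. Not reached: highest tested concentration assigned. GI50 is the concentration that inhibits growth by half.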 Calls of active or inactive are those of the source. Rule as the data show it: active = GI50 up to about 1.1 µM and inactive = higher.

Regarding `FC(F)(F)c1nc(-c2ccccc2Cl)[nH]c1C(F)(F)F`, the GI50 in assay [1] was 0.504 µM (active); in assay [2], 0.687 µM (active); in assay [3], 1.12 µM (inactive); in assay [4], 0.675 µM (active); in [5] it was 0.394 µM (active); in assay [6] it was 0.459 µM (active). Also, the GI50 was 1.15 µM (inactive) in assay [7]; 0.94 µM (active) in assay [8]; 0.841 µM (active) in assay [9]; 0.991 µM (active) in assay [10]; 0.861 µM (active) in assay [11]; 0.798 µM (active) in assay [12]. For the same compound, the GI50 is 1.15 µM (inactive) in assay [13]; 0.705 µM (active) in [14]; 0.893 µM (active) in assay [15]; 0.841 µM (active) in assay [16]; 0.56 µM (active) in assay [17].
With `O=C1c2ccccc2C(=O)C1C(c1ccc([N+](=O)[O-])cc1)C1C(=O)c2ccccc2C1=O`, the GI50 is 32.4 µM (inactive) in [1]; 34.9 µM (inactive) in [2]; 55.7 µM (inactive) in assay [3]; 44.7 µM (inactive) in assay [4]; 34.8 µM (inactive) in assay [5]; 18 µM (inactive) in [6]. Also, the GI50 in assay [8] was > 100 µM (inactive); in assay [9], > 100 µM (inactive); in assay [10], 36.9 µM (inactive); in [11], > 100 µM (inactive); in assay [12], 14.3 µM (inactive); in assay [13], 17.9 µM (inactive). The GI50 in assay [14] is 36.6 µM (inactive); in [15], 73.8 µM (inactive); in assay [16] it was > 100 µM (inactive); in assay [17], > 100 µM (inactive).
As to `C1=C(c2ccccc2)CN(c2ccccc2)OC1`, the GI50 in assay [1] was > 100 µM (inactive); in assay [2], 89.7 µM (inactive); in assay [3] it was 83.8 µM (inactive); in assay [4] it was 32.2 µM (inactive); in [5], > 100 µM (inactive); in [6], > 100 µM (inactive). For the same compound, the GI50 in assay [7] is > 100 µM (inactive); in assay [8], 44.4 µM (inactive); in assay [9], 63.2 µM (inactive); in assay [10], 74.5 µM (inactive); in assay [11], > 100 µM (inactive); in assay [12], 33.5 µM (inactive). In addition, the GI50 is > 100 µM (inactive) in assay [13]; > 100 µM (inactive) in [14]; > 100 µM (inactive) in assay [15]; > 100 µM (inactive) in assay [16]; 86.9 µM (inactive) in assay [17].
`CCOC(=O)CC[C@H](NC(=O)c1nc[nH]c1[N+](=O)[O-])C(=O)OCC`: the GI50 in assay [1], in [2], in assay [3], in assay [4], in [5] and in [6] was > 100 µM (inactive) in each case. Besides, the GI50 in [7], in [9], in [10], in assay [11], in assay [12] and in assay [14] was > 100 µM (inactive) throughout. Further, the GI50 in [15], in assay [16] and in assay [17] was > 100 µM (inactive) throughout.
Take `CCCCCCCCCCCC(=O)OCC1OC(n2cc(F)c(=O)[nH]c2=O)C(N)C(OC(=O)CCCCCCCCCCC)C1O` (stereo not drawn): the GI50 was 37.2 µM (inactive) in [1]; > 100 µM (inactive) in [2]; 64.4 µM (inactive) in [3]; > 100 µM (inactive) in assay [4]; > 100 µM (inactive) in assay [5]; 88.3 µM (inactive) in assay [6]. The GI50 in [8] was > 100 µM (inactive); in assay [9], > 100 µM (inactive); in [10] it was 27 µM (inactive); in assay [11], > 100 µM (inactive); in assay [12] it was > 100 µM (inactive); in assay [13] it was 68.4 µM (inactive). The GI50 is 60.7 µM (inactive) in assay [14], 69.7 µM (inactive) in [15], > 100 µM (inactive) in [16] and > 100 µM (inactive) in [17].
Turning to `NC(=O)N/N=C(\CCC(=O)N(Cc1ccccc1)Cc1ccccc1)CC(=O)c1ccc(F)cc1`, the GI50 in assay [1], in [2], in assay [3], in [4], in assay [5] and in assay [6] was > 100 µM (inactive) in each case. The GI50 in assay [7] was > 100 µM (inactive); in [8] it was > 100 µM (inactive); in assay [9] it was > 100 µM (inactive); in assay [10], > 100 µM (inactive); in assay [11], > 100 µM (inactive); in assay [12], 31.6 µM (inactive). For the same compound, the GI50 was > 100 µM (inactive) in assay [13]; > 100 µM (inactive) in assay [14]; 23.8 µM (inactive) in assay [15]; > 100 µM (inactive) in [16]; > 100 µM (inactive) in assay [17].
As for `O=c1[nH]cc(COCCCO)c(=O)[nH]1`, the GI50 is > 100 µM (inactive) in [1]; 53.5 µM (inactive) in assay [2]; > 100 µM (inactive) in assay [3]; > 100 µM (inactive) in assay [4]; > 100 µM (inactive) in [5]; > 100 µM (inactive) in assay [6]. The GI50 in assay [7], in assay [8], in assay [9], in assay [10], in [11] and in [12] was > 100 µM (inactive) throughout. The GI50 in [13], in assay [14], in assay [15], in [16] and in [17] was > 100 µM (inactive) each time.
For the compound `O=[N+]([O-])c1ccc(N2C[N+](c3ccccc3)=NC(c3ccccc3)=N2)cc1`, the GI50 in [1] is 45.1 µM (inactive); in assay [2], 34 µM (inactive); in assay [3], 58.1 µM (inactive); in assay [4], 17.3 µM (inactive); in [5], 17.8 µM (inactive); in assay [6], 26.1 µM (inactive). For the same compound, the GI50 in [7] is 41.2 µM (inactive); in assay [8] it was 43.9 µM (inactive); in [9], 19.3 µM (inactive); in assay [10], 43.5 µM (inactive); in [11], 91.2 µM (inactive); in [12], 54.5 µM (inactive). The GI50 in [13] was 68.4 µM (inactive); in assay [14], 46.3 µM (inactive); in assay [15], 72.3 µM (inactive); in assay [16], 48.9 µM (inactive).
With `COC(=O)C(C(=O)c1ccccc1)C(C(=O)C(=O)Nc1ccc(OC)cc1OC)C(=O)C(=O)c1ccc(C)cc1` (stereo not drawn), the GI50 in [1], in assay [2], in assay [3], in [4], in [5] and in [6] was > 100 µM (inactive) in each case. The GI50 in [7], in [8], in assay [9], in [10], in [11] and in assay [12] was > 100 µM (inactive) each time. For the same compound, the GI50 in assay [13], in assay [14], in assay [15], in assay [16] and in assay [17] was > 100 µM (inactive) each time.
As to `CN(C)C(=S)/N=c1\ss/c(=N\c2ccccc2)n1-c1ccccc1`, the GI50 in [1] was 0.435 µM (active); in assay [2] it was 25.8 µM (inactive); in assay [3] it was 14.7 µM (inactive); in [4], 32.9 µM (inactive); in [5] it was 27.2 µM (inactive); in assay [6], 17.1 µM (inactive). Further, the GI50 in assay [7] is 25.1 µM (inactive); in assay [8], 0.154 µM (active); in assay [9], 25.2 µM (inactive); in assay [10] it was 30 µM (inactive); in assay [11] it was 21.3 µM (inactive); in [12] it was 16.3 µM (inactive). The GI50 is 25 µM (inactive) in [13]; 49.5 µM (inactive) in assay [14]; 16.3 µM (inactive) in [15]; 40.6 µM (inactive) in assay [16]; 37.3 µM (inactive) in assay [17].
For `NNC(=O)CCC(=O)NC1C2CC3CC(C2)CC1C3` (stereo not drawn), the GI50 in assay [1], in assay [2], in assay [3], in [4], in assay [5] and in assay [6] was > 100 µM (inactive) throughout. The GI50 was > 100 µM (inactive) in [7]; > 100 µM (inactive) in assay [8]; > 100 µM (inactive) in assay [9]; 43.5 µM (inactive) in assay [10]; > 100 µM (inactive) in assay [11]; 45.4 µM (inactive) in assay [12]. Also, the GI50 in assay [13], in [14], in assay [15] and in assay [16] was > 100 µM (inactive) each time.
Turning to `CC(=O)OCC1OC(OC2CC3C(C)(C)C(OC(C)=O)CC[C@]3(C)C3CCC45CC4(CC[C@H]5C(C)CC(O)[C@@H](O)C(C)(C)O)[C@]23C)C(O)C(O)C1O` (stereo partly drawn), the GI50 in assay [1] is 6.46 µM (inactive); in assay [2], 8.53 µM (inactive); in assay [3] it was 6.95 µM (inactive); in assay [4], 6.38 µM (inactive); in assay [5] it was 5.86 µM (inactive); in [6], 6.95 µM (inactive). The GI50 in assay [7] is 7.36 µM (inactive); in [8] it was 8.05 µM (inactive); in assay [9] it was 7.98 µM (inactive); in [10], 2.36 µM (inactive); in assay [11] it was 7.69 µM (inactive); in assay [12] it was 7.57 µM (inactive). Also, the GI50 in [13] is 7.69 µM (inactive); in [14], 7.05 µM (inactive); in assay [15], 7.31 µM (inactive); in assay [16], 5.83 µM (inactive); in assay [17], 7 µM (inactive).
